Patent US20230072949A1, “NANOMATERIALS FOR TARGETED TREATMENT AND IMAGING OF ANEURYSMAL MICROENVIRONMENT” (The University of North Carolina at Chapel Hill, priority 2020, published 2023)
Where a SMILES comes first, the peptide text is derived from it. Where no end group is shown, it is not given here. The star is where a group is joined. Palmitoyl = CCCCCCCCCCCCCCCC(=O)*; Lauroyl = CCCCCCCCCCCC(=O)*; C16 = C16 lipid tail

Key:
[1] = Organ distribution of PA (kidney, liver, lung, spleen, aorta) by LSFM; type: in vivo, Sprague Dawley rats; details: 2 hours post injection (FIG. 11)
Description: (A) Organ distribution of MMP-2 targeting PA 1 in the kidney, liver, lung, spleen, and aorta of Sprague Dawley rats 2 hours post injection. White color represents autofluorescence and red to yellow represents TAMRA-labeled PA. (B) Plotted mean data of the ratio of PA to tissue in each organ.
Targeting specificity of both MMP-2-targeting and elastin-targeting PAs to the aneurysmal aorta, non-aneurysmal suprarenal aorta, and all vital organs is assessed using in vivo imaging system (IVIS), light-sheet fluorescence microscopy (LSFM), and immunofluorescence (IF) microscopy. […] Targeting specificity was determined by measuring pixel count above an assigned threshold. Further, MMP-2 was quantified using IF microscopy and correlated to the amount of MMP-2-targeting PA. When no adverse side effects occurred, the dosage was increased until we achieved saturation of targeting. With this experiment, we confirmed that targeted PA nanomaterials localized to the site of interest and optimal dose for duration studies was determined. Results are shown for 2 hours post PA injection of either 2.5 mg, 5 mg, or 10 mg of MMP-2-targeting PA 1. A higher PA volume to tissue volume ratio is seen in the 5 mg and 10 mg dose than the 2.5 mg dose. The 5 mg dose was selected for further investigation. […]

[2] = system: aneurysmal aorta (CaCl2-induced AAA of the infrarenal aorta); assay: Targeting of PA nanomaterials to aneurysmal tissue in CaCl2-induced AAA rats (LSFM / fluorescence microscopy after intravenous injection); type: in vivo, Sprague Dawley rats; details: for targeting to the rat aorta (LSFM images): 2 hours post PA injection (FIG. 8A); for Targeting Capability: Table 1, aneurysm targeting
Source text: We also validated the CaCl2 model, by inducing aneurysms in 10 male and 7 female Sprague Dawley rats. We measured aortic diameter before AAA induction and then at days 14, 21, and 28 after induction using ultrasound. At day 35, we performed an endpoint surgery and measured the diameter of the aorta, perfusion-fixed the rats, and collected tissue. Tissue was cryo-sectioned and assayed for elastin (Verhoeff-Van Gieson (VVG)), calcium (Von Kossa), and MMP-2 (IF) staining. […] There was no significant difference between male and female rats in aortic dilation (data not shown). Further, we found both elastin fragmentation, and robust MMP-2 protein staining in the aortas exposed to CaCl2, with negligible amounts of fragmentation and MMP-2 in the suprarenal aortas from the same animals (FIG. 2 C+F). Fragmentation of elastin and MMP-2 corresponded to regions of the aorta that were calcified (FIG. 2E).
To evaluate the targeting specificity of the targeted PA nanomaterials, we induced AAA in the infrarenal aorta of Sprague Dawley rats by exposure to CaCl2. After 35 days, a period consistent with aneurysm formation, the targeted PA nanomaterials was injected intravenously. We assessed targeting specificity and duration to aneurysmal sites as well as to all vital organs. We also determined optimal concentration, dose, and co-assembly ratios. Controls included rats injected with saline alone, non-targeted PA nanomaterials, and PA nanomaterials bearing a scrambled targeting sequence.
Experimental Design. Dosage and targeting specificity. To evaluate specific localization of targeted PA nanomaterials, AAA is induced in the infrarenal aorta of male and female Sprague Dawley rats by exposure to CaCl2) (FIG. 4 and FIG. 5A). The features of human AAA can be recapitulated in rodent models. Here, we developed and validated a surgical model of AAA, where CaCl2 is applied to the periadventitial surface of the aorta.^4, 18 While no single model perfectly replicates human AAA, similarities between CaCl2-induced AAA and human aneurysms makes this a useful model. […]
Aortic dilation is measured using ultrasound imaging. […]
Targeting specificity of both MMP-2-targeting and elastin-targeting PAs to the aneurysmal aorta, non-aneurysmal suprarenal aorta, and all vital organs is assessed using in vivo imaging system (IVIS), light-sheet fluorescence microscopy (LSFM), and immunofluorescence (IF) microscopy. […] Targeting specificity was determined by measuring pixel count above an assigned threshold. Further, MMP-2 was quantified using IF microscopy and correlated to the amount of MMP-2-targeting PA. […] With this experiment, we confirmed that targeted PA nanomaterials localized to the site of interest and optimal dose for duration studies was determined. […]

Row | Compound | organ distribution (kidney, liver, lung, spleen, aorta) ([1]; listed as MMP-2-targeting PA 1) | organ distribution (kidney, liver, lung, spleen, aorta) ([1]; listed as MMP-2 targeting PA) | targeting to the rat aorta (LSFM images) [2] | Targeting Capability [2]
1 | CCCCCCCCCCCCCCCC(=O)N[C@H](C(=O)N[C@H](C(=O)N[C@@H](C)C(=O)N[C@@H](C)C(=O)N[C@@H](CCC(=O)O)C(=O)N[C@@H](CCC(=O)O)C(=O)NCC(=O)NCC(=O)N[C@@H](CCCNC(=N)N)C(=O)NCC(=O)N[C@@H](C)C(=O)N[C@@H](C)C(=O)N1CCC[C@H]1C(=O)N1CCC[C@H]1C(=O)N[C@@H](CCCCN)C(=O)N[C@@H](CCC(N)=O)C(=O)N[C@@H](CCC(=O)O)C(=O)N[C@@H](Cc1ccccc1)C(=O)N[C@@H](CC(C)C)C(=O)N[C@@H](CC(=O)O)C(=O)N[C@H](C(=O)N[C@@H](CCC(=O)O)C(=O)O)[C@@H](C)CC)C(C)C)C(C)C [MMP-2_RGA] (Palmitoyl-VVAAEEGGRGAAPPKQEFLDIE-OH; N-terminus and C-terminus assumed) | predominantly localized to the aorta | predominantly localizes to the aorta | – | –
2 | (C16)VVAAEEGGLWMDWVTEKNIN (C16-VVAAEEGGLWMDWVTEKNIN) [MTI-MMP_LWM, MT1-MMP-targeting peptide amphiphile] | – | – | targeting to the rat aorta | Targets aneurysm
3 | PLSEWRASYNGGEEAAVVK(C12) (PLSEWRASYNGGEEAAVVK(Lauroyl)) [Fragmented Elastin_PLS, fragmented elastin-targeting peptide amphiphile on E2A2V2K(C12) diluent backbone] | – | – | targeting to the rat aorta | Does not target
